US11612651B2, “Steroid acid-based immunogen enhancers” (priority 2021, dated 2023)
No end group written: not given here. *: point of attachment. Cholyl = C[C@H](CCC(=O)*)[C@H]1CC[C@H]2[C@@H]3[C@H](O)C[C@@H]4C[C@H](O)CC[C@]4(C)[C@H]3C[C@H](O)[C@]12C

Experiments:
GII.3 human norovirus = conditions: host intestinal cells; free bile acids; cited from earlier work
B3Z cells [1] = assay: Antigen-presentation assay using the B3Z reporter system, BMDCs as antigen presenting cells; assay type: cell-based, mouse; conditions: for antigen-presentation activity of cholic acid-NLS peptide conjugate (B3Z response OD570): BMDCs as antigen presenting cells, mixed with OVA at best conjugate:antigen ratio, FIGS. 3-5; for antigen cross-presentation (B3Z response) compared with OVA alone: BMDCs, molar ratio (bile acid/peptide/conjugate):antigen 4:1, mixed with OVA, FIG. 2
From the text: For this experiment, BMDCs were used as the antigen presenting cells (n=6) and the molar ratio (bile acid/peptide/conjugate): antigen was 4:1. Controls tested included no antigen (“PBS”), antigen alone (“OVA alone”), unconjugated NLS peptide (“SV40NLS”), unconjugated cholic acid mixed with OVA (“CA”), and the positive control peptide SIINFEKL (SEQ ID NO: 9) mixed with OVA (“SIINFEKL”). The dashed line represents the signal obtained with OVA alone. Bile acids: cholic acid (CA); glycodeoxycholic acid (GDCA); glycochenodeoxycholic acid (GCDCA); ursodeoxycholic acid (UDCA); and lithocholic acid (LCA).
The dashed line represents the signal obtained with OVA alone. The readout was taken after 24 h of incubation and error bars represent SD (n=6). For this experiment, BMDCs were used as the antigen presenting cells.
The dashed line represents the signal obtained with OVA alone. Readout was taken after 24 h of incubation from a single experiment. The molar ratio of CA-peptide conjugate: OVA was 22:1. For this experiment, BMDCs were used as the antigen presenting cells.
For this experiment, BMDCs were used as the antigen presenting cells. The dashed line represents the signal obtained with OVA alone. Readout was taken after 24 h of incubation from a single experiment. The molar ratio of CA-peptide conjugate: OVA was as follows: CA-GWG-SV40NLS (12:1); CA-hnRNP M NLS (12:1); CA-NLS2-RPS17 NLS (22:1); CA-HuR NLS (22:1); CA-cMyc NLS (2:1); CA-NLS3-RPS17 NLS (22:1); CA-NLS2-RG-RPS17 NLS (2:1); CA-PQBP1 NLS (8:1); CA-hnRNPA1 M9 NLS (22:1); and CA-SV40 NLS (2:1).
(§1) Various bile acid-NLS conjugates were screened using the B3Z reporter system. The B3Z cell line is a T-cell hybridoma specific for the H2-K^b-SIINFEKL complex. Once activated via its TCR, the LacZ reporter gene (under the NFAT promoter control) is expressed. Briefly, 1.5×10^5 BMDCs or 2.5×10^5 MSCs were co-cultured with 5×10^4 B3Z cells treated with the mixing conditions of ovalbumin (OVA) and bile acid-NLS conjugates for overnight at 37° C. with 5% CO2. The following day, all cells were washed twice with PBS (pH 7.4), and the cell pellets were lysed by adding 100 μL of a lysis buffer containing 0.15 mM chlorophenol red-beta-D-galactopyranoside (CPRG) substrate (Calbiochem, La Jolla, Calif.), 0.125% NP40 (EMD Sciences, La Jolla, Calif.), 9 mM MgCl2 (Aldrich, USA) and 100 mM 2-mercaptoethanol in PBS. After a 5- or 24-h incubation at 37° C., absorbance was taken at 570 nm with 636 nm as the reference wavelength. For these experiments, OVA was re-suspended in PBS (pH 7.3) at 5-10 mg/mL. The different bile acid-NLS conjugates were re-suspended in H2O at 10 mg/mL. Bile acid-NLS conjugate: antigen mixtures were prepared at different molar ratios according to Table 2.
Variants of CA-SV40NLS were synthesized in order to explore structure-activity relationships relating to the antigen cross-presentation enhancing activity observed for this conjugate. More particularly, conjugates having different bile acids conjugated to the SV40NLS peptide (SEQ ID NO: 1) were synthesized and their effect on antigen presentation was evaluated by using the B3Z reporter system with the OVA antigen as described in Example 1. […] In FIG. 2, no increase in antigen cross-presentation over the antigen alone (“OVA”) was observed when OVA was mixed with either unconjugated cholic acid (“CA”) or SV40NLS peptide (“SV40NLS”), although lower sensitivity of the B3Z reporter system as compared to the OT-I CD8 T cell-based assay used in FIG. 1 may have been a factor.
(§2) Further variants of CA-SV40NLS were synthesized in which the SV40NLS peptide was replaced with peptides comprising other NLS's (Table 3) and the antigen presentation activities of the CA-NLS peptide conjugates were evaluated using the B3Z reporter system as described in Example 1. The following conjugate:antigen molar ratios were tested for each conjugate: 2:1, 4:1, 8:1, 12:1 and 22:1. […]

B3Z cells [2] = assay: Antigen-presentation assay using the B3Z reporter system, cross-presenting MSC line as antigen presenting cells; assay type: cell-based; conditions: compared to OVA alone or OVA mixed with CA-SV40NLS, FIG. 6
Procedure: For this experiment, a cross-presentation mesenchymal stromal cell (MSC) line was used as the antigen presenting cells. The dashed line represents the signal obtained with OVA alone. Readout was taken after 24 h of incubation. The molar ratio of CA-peptide conjugate: OVA was as follows: CA-GWG-SV40NLS (2:1); CA-hnRNP M NLS (8:1); CA-hnRNP D NLS (12:1); CA-NLS2-RG-RPS17 (4:1); CA-cMyc NLS (12:1); CA-HuR NLS (12:1); CA-Tus NLS (2:1); CA-NLS2-RPS17 NLS (4:1); CA-PQBP1 NLS (12:1); CA-hnRNPA1 M9 NLS (2:1); and CA-SV40 NLS (2:1).
as §1, §2

[3] = system: cross-presenting mesenchymal stromal cell (MSC) line; assay: Antigen internalization: MSC line pulsed with OVA labelled with Alexa Fluor 647, flow cytometry; assay type: cell-based; conditions: various conjugate:OVA molar ratios, FIGS. 7A-7D
Procedure: FIGS. 7A to 7D show the effect of different NLS peptides on the antigen internalization activity of cholic acid-NLS peptide conjugates. For this experiment, a cross-presenting mesenchymal stromal cell (MSC) line was used as the antigen presenting cells, which were pulsed with OVA labelled with Alexa Fluor 647 (i.e., OVA^647)™. OVA^647 fluorescence was measured by flow cytometry. Different ratios of CA (NLS1 RPS17 [FIG. 7A]; NLS3 RPS17 [FIG. 7B]; PQBP-1 [FIG. 7C]; and hnRNPA1 M9 NLS [FIG. 7D]) to antigen (CA:OVA=22:1, 12:1, 8:1, 4:1, and 2:1) were tested (hnRNPA1 M9 NLS at 2:1).
(§3) To further dissect the effect of bile acid peptide conjugates on antigen presentation, antigen internalization and processing were evaluated. MSC cell lines were pulsed with OVA-labelled with AF647 in the presence of various molar ratios of different bile acid peptide conjugates, NLS1-RPS17 [FIG. 7A]; NLS3 RPS17 [FIG. 7B]; PQBP-1 [FIG. 7C]; and hnRNPA1 M9 NLS [FIG. 7D]) and fluorescence was assessed by flow cytometry. […] OVA processing was assessed by pulsing MSC cell lines with DQ™-Ovalbumin (OVA-DQ) in the presence of the same bile acid peptide conjugates as in FIGS. 7A to 7D.

[4] = system: cross-presenting mesenchymal stromal cell (MSC) line; assay: Antigen processing: MSC line pulsed with DQ Ovalbumin (OVA-DQ), flow cytometry; assay type: cell-based; conditions: various conjugate:OVA molar ratios, FIGS. 8A-8D
Procedure: FIGS. 8A to 8D show the effect of different NLS peptides on the antigen processing activity of cholic acid-NLS peptide conjugates. For this experiment, a cross-presenting mesenchymal stromal cell (MSC) line was used as the antigen presenting cells, which were pulsed with DQ™ Ovalbumin (i.e., OVA^DQ). OVA^DQ fluorescence was measured by flow cytometry. Different ratios of CA (NLS1 RSP17 [FIG. 8A]; NLS3 RPS17 [FIG. 8B]; PQBP-1 [FIG. 8C]; and hnRNPA1 M9 NLS [FIG. 8D]) to antigen (CA:OVA=22:1, 12:1, 8:1, 4:1, and 2:1) were tested (hnRNPA1 M9 NLS at 2:1).
as §3

Compound: C[C@H](CCC(=O)NCC(=O)O)[C@H]1CC[C@H]2[C@@H]3[C@H](O)C[C@@H]4C[C@H](O)CC[C@]4(C)[C@H]3C[C@H](O)[C@]12C [GCA, glycocholic acid]
- effect on GII.3 human norovirus infection and replication (GII.3 human norovirus): increase GII.3 human norovirus infection and replication

Compound: C[C@H](CCC(=O)NCC(=O)O)[C@H]1CC[C@H]2[C@@H]3[C@@H](O)C[C@@H]4C[C@H](O)CC[C@]4(C)[C@H]3CC[C@]12C [GUDCA, glycoursodeoxycholic acid]
- immunogen enhancer activity (B3Z reporter system) (B3Z cells [1]; GUDCA:OVA molar ratios 2:1, 4:1, 8:1, 12:1 and 22:1): observed at all GUDCA:OVA molar ratios tested
- increase in B3Z response (OD570) over the OVA alone (B3Z cells [1]; unconjugated GUDCA mixed with OVA, 22:1, data not shown): ≤ 30%

Compound: C[C@H](CCC(=O)NCCS(=O)(=O)O)[C@H]1CC[C@H]2[C@@H]3[C@H](O)C[C@@H]4C[C@H](O)CC[C@]4(C)[C@H]3C[C@H](O)[C@]12C [TCA, taurocholic acid]
- effect on GII.3 human norovirus infection and replication (GII.3 human norovirus): increase GII.3 human norovirus infection and replication

Compound: CA-GWG-SV40NLS: cholic acid conjugated to peptide CGWWGYGPKKKRKVGGWWG (SEQ ID NO: 3) (also: cholic acid conjugate, site not given here)
- antigen-presentation activity of cholic acid-NLS peptide conjugate (B3Z response OD570) (B3Z cells [1]): higher antigen-presentation activity than SV40NLS
- antigen-presentation activity of cholic acid-NLS peptide conjugate (B3Z response OD570) (B3Z cells [2]): strikingly high antigen-presentation activity

Compound: CA-HuR NLS: cholic acid conjugated to peptide CGRFSPMGVDHMSGLSGVNVPG (SEQ ID NO: 13) (also: cholic acid conjugate, site not given here)
- antigen-presentation activity of cholic acid-NLS peptide conjugate (B3Z response OD570) (B3Z cells [1]): high antigen presentation activity
- antigen-presentation activity of cholic acid-NLS peptide conjugate (B3Z response OD570) (B3Z cells [2]): strikingly high antigen-presentation activity

Compound: CA-NLS2-RG-RPS17 NLS: cholic acid conjugated to NLS2-RG Domain RPS17 peptide (SEQ ID NO: 11) (CNKRVCEEIAIIPSKKLRNKGSGRIQRGPVRGIS; cysteine pairing not given here; also: cholic acid conjugate, site not given here)
- antigen-presentation activity of cholic acid-NLS peptide conjugate (B3Z response OD570) (B3Z cells [1]): high antigen presentation activity

Compound: CA-NLS3-RPS17 NLS: cholic acid conjugated to peptide SKKLRNKIAGYVTHLMKRI (SEQ ID NO: 8) (also: cholic acid conjugate, site not given here)
- antigen-presentation activity of cholic acid-NLS peptide conjugate (B3Z response OD570) (B3Z cells [1]): high antigen presentation activity
- OVA internalization (OVA-AF647 fluorescence) [3]: enhance OVA internalization
- OVA processing (OVA-DQ fluorescence) [4]: enhance OVA processing

Compound: CA-SV40NLS: cholic acid conjugated to the N-terminal cysteine amino group of 13-mer peptide CGYGPKKKRKVGG (SEQ ID NO: 1) (Cholyl-CGYGPKKKRKVGG)
- antigen cross-presentation (B3Z response) compared with OVA alone (B3Z cells [1]): increased antigen cross-presentation

Compound: CA-cMyc NLS: cholic acid conjugated to peptide CGYGPAAKRVKLDGG (SEQ ID NO: 12) (also: cholic acid conjugate, site not given here)
- antigen-presentation activity of cholic acid-NLS peptide conjugate (B3Z response OD570) (B3Z cells [1]): high antigen presentation activity

Compound: CA-hnRNPA1 M9 NLS: cholic acid conjugated to peptide CSNFGPMKGGNFGGRSSGPY (SEQ ID NO: 4) (also: cholic acid conjugate, site not given here)
- OVA internalization (OVA-AF647 fluorescence) [3]: enhance OVA internalization
- OVA processing (OVA-DQ fluorescence) [4]: enhance OVA processing

Compound: NLS1-RPS17: cholic acid conjugated to peptide CMGRVRTKTVKKAAGG (SEQ ID NO: 15) (also: cholic acid conjugate, site not given here)
- OVA internalization (OVA-AF647 fluorescence) [3]: enhance OVA internalization
- OVA processing (OVA-DQ fluorescence) [4]: enhance OVA processing

Compound: SV40NLS: unconjugated NLS peptide CGYGPKKKRKVGG (SEQ ID NO: 1) (SV40NLS) [reference compound]
- antigen cross-presentation (B3Z response) compared with OVA alone (B3Z cells [1]): no increase
